# According to PMC10376691, “Inhibition of Acetylcholinesterase and Amyloid-β Aggregation by Piceatannol and Analogs: Assessing In Vitro and In Vivo Impact on a Murine Model of Scopolamine-Induced Memory Impairment” (Antioxidants, 2023):
# “Also recorded” adds a separate entry of the source.
# What was measured:
# SH-SY5Y cells [1] = test: Cytotoxicity on SH-SY5Y cells (MTT); type: cell-based; settings: 1, 2, 5 and 10 μM, MTT (Figure S1)
# Method: The human SH-SY5Y neuroblastoma cell lines (CRL-2266, Lot No. 58979771) were purchased from American Type Culture Collection (Manassas, VA, USA) and used as models to investigate PIC and its analogs for neuroprotective activities against Aβ-induced cell deaths and the stimulation of neurite outgrowths. The SH-SY5Y cells were grown in DMEM/F-12 medium supplemented with 10% FBS at 37 °C under a humidified atmosphere and 5% CO2 [41]. […]. The SH-SY5Y cells (10,000 cells/well) were seeded and cultured in a DMEM/F-12 medium containing 10% FBS for 24 h at 37 °C under a humidified atmosphere and 5% CO2. […] The medium was then removed, and 40 μg/mL Aβ peptide (25–35) (dissolved in PBS) or an equal aliquot of PBS was added to the medium for another 24 h culture. The MTT was used to evaluate cell viability, and the absorbance at 570 nm was determined. The DMSO used instead of the sample solution was blank (recognized as 100%), and each treatment was expressed as relative cell viability (%). […] To measure cell viability and quantify the neurite outgrowths of the treated SH-SY5Y in a 96-well plate, the neurite outgrowth staining kit (a two-color fluorescence assay kit) was used, following a previous report or the protocol in the manufacturer’s manual (publication number: MAN0007224), which included a cell membrane-stained fluorescent dye (orange-red fluorescence), a cell viability indicator (green fluorescence), and a reagent for background masking. The fluorescence ratios of Ex555nm/Em565nm and Ex495nm/Em515nm were determined for the neurite outgrowths and the cell viabilities, respectively. […]
# The following supporting information can be downloaded at: https://www.mdpi.com/article/10.3390/antiox12071362/s1. […] The MTT was used to evaluate cell viability, and the absorbance at 570 nm was determined. The DMSO used instead of the sample solution was blank (recognized as 100%), and each treatment was expressed as relative cell viability (%). […]
# SH-SY5Y cells [2] = test: Neurite outgrowth and cell viability, two-color fluorescence assay kit; type: cell-based; settings: 10 μM, 3-day or 6-day treatment, orange-red fluorescence; vs control
# Method: (§1) The SH-SY5Y cells were grown in DMEM/F-12 medium supplemented with 10% FBS at 37 °C under a humidified atmosphere and 5% CO2 [41]. […] The MTT was used to evaluate cell viability, and the absorbance at 570 nm was determined. The DMSO used instead of the sample solution was blank (recognized as 100%), and each treatment was expressed as relative cell viability (%). To study the stimulation of neurite outgrowth, the SH-SY5Y cells (5000 cells/well) were seeded on a 96-well plate pre-coated with poly-L-lysine and then cultured in the DMEM/F-12 medium containing 10% FBS overnight at 37 °C under a humidified atmosphere and 5% CO2. After being removed from the culture medium, each PIC, GNT, RHA, and isoRHA (at a final concentration of 10 μM in the 0.1%DMSO) or 0.1% DMSO (the control) was added to the DMEM/F-12 medium containing 10% FBS and refreshed every three days. On day 3 and day 6, each of the culture plates was photographed using an inverted microscope (ECLIPSE TS100, Nikon Instruments Inc., Tokyo, Japan). The culture medium was removed and washed with PBS, and the cultured cells in each well were fixed with 4% paraformaldehyde. To measure cell viability and quantify the neurite outgrowths of the treated SH-SY5Y in a 96-well plate, the neurite outgrowth staining kit (a two-color fluorescence assay kit) was used, following a previous report or the protocol in the manufacturer’s manual (publication number: MAN0007224), which included a cell membrane-stained fluorescent dye (orange-red fluorescence), a cell viability indicator (green fluorescence), and a reagent for background masking. […] The value for the control was recognized as 100%, and each treatment was expressed relative to the control.
# [3] = as above; type: cell-based; settings: human, 3-day or 6-day treatment, green fluorescence, read-out: cell viability relative to the control
# Method: as §1
# Aβ peptide (1–42) = target: T1, Aβ peptide (1–42) (Homo sapiens, UniProt P05067); test: biochemical
# T1 construct: The Aβ peptide (1–42) was synthesized and purchased from Kelowna International Scientific Inc; purchased Kelowna International Scientific Inc. (New Taipei, Taiwan); host or cells: chemical synthesis
# T1 sequence (P05067 672-713): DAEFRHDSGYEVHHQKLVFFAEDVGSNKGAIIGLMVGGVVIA
# Method: To prepare the 10 μM Aβ peptide working solution, commercial Aβ peptide was first weighted and dissolved in HFIP to 1 mM. Next, the solvent was evaporated in a hood and then re-dissolved using 100 μL of 60 mM NaOH. It was then diluted to 10 μM working solutions with 50 mM phosphate buffer (pH 7.4, containing 150 mM sodium chloride and 1 mM EDTA), following previous reports. […] DMSO instead of the sample solution was used as the control. The 50 mM phosphate buffer was used instead of the Aβ working solution as the sample blank. […] The IC50 of the inhibition against the Aβ aggregation of PIC and its analogs was calculated from each linear equation using three test concentrations and their inhibition capacities.
smiles,measurement,setting,value
"Oc1cc(O)cc(C=Cc2ccc(O)c(O)c2)c1 [PIC, 3,5,3′,4′-tetrahydroxystilbene]",cytotoxicity on SH-SY5Y cells,SH-SY5Y cells [1],insignificant cytotoxicity
same,stimulation of neurite outgrowths,SH-SY5Y cells [2],not PIC nor GNT; also recorded: not PIC and GNT
same,viability at 10 µM,[3],80%
same,IC50,Aβ peptide (1–42),480 nM
same,"anti-Aβ aggregation capacity, fold higher than that of RSV",Aβ peptide (1–42); vs RSV,2.94 fold
